Values of other authors, collected in patent US9801874B2, “Method for the preparation of liposome encapsulated vincristine for therapeutic use” (Spectrum Pharmaceuticals, Inc., priority 2012, dated 2017).
Structures can show the parent of a compound that is named as a salt.

Conditions: 1:1 sulfate salt, crystalline powder

## CCC12C=CCN3CC[C@@]4(c5cc([C@@]6(C(=O)OC)CC7CN(CCc8c6[nH]c6ccccc86)C[C@](O)(CC)C7)c(OC)cc5N(C=O)[C@H]4[C@@](O)(C(=O)OC)C1OC(C)=O)C32 (stereo partly shown) [Vincristine sulfate, 22-oxovincaleukoblastine]
  solubility in water: soluble in water
